Data set [1] has as its system erythrocytes. Also noted: method as in 3 sources, one per row (each row's own in cited_ref): ref Cerovsky et al., 2009 ||| ref Cao et al., 2012; Almaaytah and Albalas, 2014 ||| ref Hirai et al., 1981. The following applies: cited from earlier work.
The subject of data set [2] is C. albicans. Nature of the data set: microbe, parasite or virus in culture. The following applies: broth microdilution, 30°C. It counts as cell-based, Candida albicans. On the procedure:
In this project, we used a clinical isolate of C. albicans obtained from Tim Planche (St. George’s, University of London).
Mueller-Hinton broth (MHb) (Merck, Life Science UK Limited, Dorset, UK) was prepared to concur with the manufacturer’s directions and supplemented with 2% glucose to grow C. albicans. Liquid cultures were incubated at 30°C for 18–20 h on a shaker, and culture on solid media was incubated for 18–24 h at 30°C.
When it comes to determining the antimicrobial activity of antimicrobial peptides (AMPs) there are unfortunately many different approaches reported. Many AMPs are negatively affected by positively charged ions and other components of growth media, therefore Mueller-Hinton broth (MHb) is frequently used since it supports the growth of many organisms and seems to interfere little with the activity of most AMPs. The […] of Flucytosine and antifungal peptides were determined using a protocol (option E) of the highly cited publication by [Wiegand et al. (2008)] optimized for the work with antimicrobial peptides. This protocol uses MHb (0.2% beef extract, 1.75% casein hydrolysate). To adopt that media for the growth of yeast 2% glucose was added. For comparison, YPD complex medium (1% yeast extract, 2% peptone, 2% dextrose) is often used for the growth of yeast. Where this media provides the best activity for antimicrobial peptides the results should be carefully used when comparing MIC values to other antifungals measured in different growth media. A broth microdilution assay was applied using 6 × 10^5 CFU/mL at 30°C. MICs were determined by the unaided eye, as the concentration in which no growth was observed.

For data set [3], the system named is human erythrocytes. The following applies: no method in this paper, ref Grimsey et al., 2020; cited from earlier work.
Data set [4] has as its system C. albicans. Nature of the data set: BioSAXS ultrastructural changes, principal component analysis of scattering curves. It counts as cell-based, Candida albicans. The following applies: 2xMIC, 40 min. The procedure: A detailed description of the sample preparation for BioSAXS, the BioSAXS measurement and consequently the data evaluation methods can be found in the open-source publication by [Von Gundlach et al. (2019)]. Briefly, an aliquot of an overnight culture of a clinical isolate of C. albicans was diluted in Mueller-Hinton broth (MHb) and incubated for 2.5 h at 30°C on a shaker (225 rpm) to achieve log phase growth. The C. albicans culture was adjusted to have 1.2 × 10^6 CFU/mL and aliquoted. The aliquots were then mixed with either sterile water or antifungal solution (2xMIC) to provide 6 × 10^5 CFU/mL aliquots. Those were further incubated for 40 min at 30°C at 225 rpm. All aliquots were then centrifuged at 10,000 rpm and washed 3 times in ml 0.1 M PIPES [piperazine-N,N′-bis(2-ethanesulfonic acid)] buffer, pH 7.0. After washing, the pellet was resuspended in 1 mL of 2.5% glutaraldehyde v/v in PIPES buffer and fixated for 1 h at room temperature at 225 rpm. Consequently, the samples were washed 3 times with PBS buffer and resuspended in 100 µL of PBS and stored at 5°C.
The SAXS measurements were performed on the P12 BioSAXS beamline, EMBL (DESY, Hamburg), using a double crystal Si (111) monochromator. An energy of 10 keV with a 10^13 s^−1 photon flux was used. 30 μL of each sample was injected into the measuring chamber by an automatic sample robot (Arinax, BioSAXS), the focus of the X-ray beam was 0.2 × 0.12 mm. The scattering signal was recorded with a Pilatus 2 M detector (Dectris, Switzerland). For each sample, 20 measurements were made with 0.05 s exposure. Before and after each measurement the background was measured and automatically subtracted from the SAXS curves. Data analysis and evaluation were done using the open-source software SciXMiner (“Peptide Extension”) ([Mikut, 2010]; [Mikut et al., 2017]). To determine differences in the scattering curves between treated and untreated samples as well as between the different treatments a principal component analysis (PCA) was applied to the scattering curves. The data are measurements of about 100,000 cells that were measured 20 times to obtain the scattering curves. SAXS curves were averaged and the standard deviation was used as an error bar. The PCA analysis was carried out in the frequency range between 0.05–0.4 nm^−1, and errors were propagated from the single SAXS curves (see Supplementary Figure S1).

Data set [5] has as its system sheep erythrocytes. The following applies: ref Andreu et al., 1992, Edlund et al., 1998; cited from earlier work.
Setting [6] is: Mueller-Hinton broth + 2% glucose, 6 × 10^5 CFU/ml C. albicans clinical isolate, read by unaided eye, n = 3, modal values.
[7] abbreviates: 6 × 10^5 CFU/mL, PCA range 0.05–0.4 nm^−1.

Like-named read-outs stand apart in the source and are kept apart here. No end group written: not given here.

Turning to INLKAIAALAKKLL-NH2 [Mastoparan M], the “hemolytic activity” value in data set [1] (ref Hirai et al., 1981) was “very little”. In data set [2] (setting [6]), the “MIC” value is listed as 22 µM.
“VNWKKILGKIIKVVK-NH2 [Lasioglossin LL-III]”: the “hemolytic and cytotoxic activity” value in data set [1] (ref Cerovsky et al., 2009) is “low”. Also, in data set [2] (setting [6]), the “MIC” value was found to be 36 µM.
Take KRRVRWIIW-NH2 [OptP7]: the “HC50 (hemolysis)” value in data set [3] was above 250 µg/mL. Also, the “MIC” value in data set [2] (setting [6]) was 24 µM.
As for `Nc1[nH]c(=O)ncc1F` [Flucytosine], in data set [2] (Candida albicans, MHb + 2% glucose, 6 × 10^5 CFU/mL C. albicans clinical isolate, read-out: MIC), the MIC was 8 µg/mL. Also, in data set [4], the “PC1 value, rank in the set of six antifungal compounds” value was “second-lowest”; the “PC2 value compared to the untreated cells (direction)” value is reported as “increased”; the “PC2 value, rank in the set of six antifungal compounds” value was “highest”; the “ΔPC1 (treated versus untreated), sign” value is reported as “positive”. In data set [4] (setting [7]), the “increase of PC2 versus untreated sample” value is given as “about 1 unit” and the “reduction of PC1 versus untreated sample” value is recorded as “about 6 units”.
As for KWKLFKKIGAVLKVL-NH2, the hemolytic activity in data set [5] was above 500 µg/mL. In data set [2] (setting [6]), the “MIC” value is on record as 18 µM.
With FIGAIARLLSKIFGKR-NH2 [Bmkn2], in data set [1] (ref Cao et al., 2012, Almaaytah and Albalas, 2014), the “HC50 (hemolysis)” value is 17.13 µg/mL. In addition, in data set [2] (setting [6]), the “MIC” value stood at 18 µM.

(Values after article PMC10393279, “Can BioSAXS detect ultrastructural changes of antifungal compounds in Candida albicans?–an exploratory study” (Frontiers in Pharmacology, 2023).)
